The record followed here is ChEMBL document CHEMBL3639140, “Naphthyridine derivatives as inhibitors of hypoxia inducible factor (HIF) hydroxylase” (2014).

SMILES strings stand for the structures. pIC50: −log10 of the molar value.

The target in this test is Egl nine homolog 1 (Homo sapiens, UniProt Q9GZT9). The test can be described thus: For example, a HIF peptide for use in the HIF-PH assay is [methoxycoumarin]-[…]-amide. HIF-PH, e.g., HIF-PH2 (EGLN1), can be expressed in, e.g., insect Hi5 cells, and partially purified, e.g., through a SP ion exchange chromatography column. The format is cell-based, BTI-TN-5B1-4.
Egl nine homolog 1, sequence (Q9GZT9 whole entry): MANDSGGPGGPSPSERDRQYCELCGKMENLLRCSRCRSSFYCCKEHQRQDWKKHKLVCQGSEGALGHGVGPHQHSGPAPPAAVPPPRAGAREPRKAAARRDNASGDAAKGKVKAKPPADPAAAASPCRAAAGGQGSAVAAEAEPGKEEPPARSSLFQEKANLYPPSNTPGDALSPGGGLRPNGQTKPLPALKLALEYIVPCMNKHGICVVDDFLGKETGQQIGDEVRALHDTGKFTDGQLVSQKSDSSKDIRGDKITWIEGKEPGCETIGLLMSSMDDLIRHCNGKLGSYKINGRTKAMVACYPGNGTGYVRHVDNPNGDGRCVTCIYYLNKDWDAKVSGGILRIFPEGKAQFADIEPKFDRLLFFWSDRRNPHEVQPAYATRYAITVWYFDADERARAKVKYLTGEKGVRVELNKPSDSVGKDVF

Broadly, the pIC50 is the IC50 on a negative log10 scale, so that one unit is a factor of ten. A lower pIC50 goes with a large IC50. `O=C(NCc1ccncc1)c1ncc2c(=O)n(Cc3ccccc3)ccc2c1O` gave a pIC50 of 6.72.
